The source of these data is patent US9365522B2, “Pyrazole amide derivative” (AMGEN INC., priority 2015, dated 2016).

Structures are written as SMILES.

The target in the assay is T1, human RORγ-LBD (Homo sapiens, UniProt P51449).
T1 construct: made in house; host or cells: E. coli (BL-21)
T1 sequence (P51449 262-518): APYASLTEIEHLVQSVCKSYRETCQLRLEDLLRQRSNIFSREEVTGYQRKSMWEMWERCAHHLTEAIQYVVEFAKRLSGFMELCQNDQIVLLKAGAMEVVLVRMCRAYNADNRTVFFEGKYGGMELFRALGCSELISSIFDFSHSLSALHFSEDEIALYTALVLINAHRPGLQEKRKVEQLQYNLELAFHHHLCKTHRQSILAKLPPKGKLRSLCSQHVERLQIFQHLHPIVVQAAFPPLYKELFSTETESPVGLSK
Nature of the assay: ROR gamma coactivator peptide recruitment Alphascreen assay (RORγ-LBD binding to GRIP1 coactivator peptide). The format is biochemical. The following applies: 5 nM human RORγ-LBD, 30 nM 7-β-hydroxycholesterol, 50 nM biotinylated GRIP1 coactivator peptide, overnight incubation at room temperature; read-out: result (pIC50, RORγ coactivator peptide recruitment Alphascreen assay) (converted). The method, boiled down: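 Alphascreen proximity read-out after overnight room-temperature incubation, yielding pIC50 from 1-in-2 compound series (2.5% DMSO final). Mixture: 50 nM biotin-GRIP1 peptide, 30 nM 7-β-hydroxycholesterol agonist, 5 nM recombinant 6×His:Flag human RORγ-LBD (aa 262-518), 50 mM HEPES pH 7.4.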
For the molecule `C[C@]1(C(=O)O)CC[C@H](n2ncc(C(=O)N(CC(=O)c3c(Cl)cccc3Cl)[C@H]3CCC34CCC4)c2C(F)(F)F)CC1` [Example 641, trans-4-(4-((2-(2,6-dichlorophenyl)-2-oxoethyl)((1S)-spiro[3.3]hept-1-yl)carbamoyl)-5-(trifluoromethyl)-1H-pyrazol-1-yl)-1-methylcyclohexanecarboxylic acid], the IC50 was 0.00214 µM.

Regarding `O=C(CN(C(=O)c1cnn([C@H]2CC[C@@H](C(=O)O)CC2)c1C(F)(F)F)[C@H]1CCC12CCC2)c1c(Cl)cccc1Cl` [Example 642, cis-4-(4-((2-(2,6-dichlorophenyl)-2-oxoethyl)((1S)-spiro[3.3]hept-1-yl)carbamoyl)-5-(trifluoromethyl)-1H-pyrazol-1-yl)cyclohexanecarboxylic acid], the IC50 was 0.024 µM.

Consider `C[C@]1(C(=O)O)CC[C@H](n2ncc(C(=O)N(CC(=O)c3c(F)cccc3Cl)CC3(F)CCCC3)c2C(F)(F)F)CC1` [Example 643, trans-4-(4-((2-(2-chloro-6-fluorophenyl)-2-oxoethyl)((1-fluorocyclopentyl)methyl)carbamoyl)-5-(trifluoromethyl)-1H-pyrazol-1-yl)-1-methylcyclohexanecarboxylic acid], for which the IC50 was 0.00427 µM. The value for `CCC(CC)(CC)CN(CC(=O)c1c(Cl)cncc1Cl)C(=O)c1cnn([C@H]2CC[C@](C)(C(=O)O)CC2)c1C(F)(F)F` [Example 644, trans-4-(4-((2-(3,5-dichloro-4-pyridinyl)-2-oxoethyl)(2,2-diethylbutyl)carbamoyl)-5-(trifluoromethyl)-1H-pyrazol-1-yl)-1-methylcyclohexanecarboxylic acid] was 0.00398 µM; that for `COC1(CN(CC(=O)c2c(Cl)cncc2Cl)C(=O)c2cnn([C@H]3CC[C@](C)(C(=O)O)CC3)c2C(F)(F)F)CCCCC1` [Example 645, trans-4-(4-((2-(3,5-dichloro-4-pyridinyl)-2-oxoethyl)((1-methoxycyclohexyl)methyl)carbamoyl)-5-(trifluoromethyl)-1H-pyrazol-1-yl)1-methylcyclohexanecarboxylic acid] was 0.0138 µM. `COC1(CN(CC(=O)c2c(Cl)cncc2Cl)C(=O)c2cnn([C@H]3CC[C@@H](C(=O)O)CC3)c2C(F)(F)F)CCCC1` [Example 646, cis-4-(4-((2-(3,5-dichloro-4-pyridinyl)-2-oxoethyl)((1-methoxycyclopentyl)methyl)carbamoyl)-5-(trifluoromethyl)-1H-pyrazol-1-yl)cyclohexanecarboxylic acid]: the IC50 was 0.295 µM.

For `CC1(C)C[C@H]1N(CC(=O)c1c(Cl)cncc1Cl)C(=O)c1cnn([C@H]2CC[C@](C)(C(=O)O)CC2)c1C(F)(F)F` [Example 648, trans-4-(4-((2-(3,5-dichloro-4-pyridinyl)-2-oxoethyl)((1R)-2,2-dimethylcyclopropyl)carbamoyl)-5-(trifluoromethyl)-1H-pyrazol-1-yl)-1-methylcyclohexanecarboxylic acid], the IC50 is 0.0324 µM. Consider `C[C@]1(C(=O)O)CC[C@H](n2ncc(C(=O)N(CC(=O)c3c(Cl)cccc3Cl)[C@H]3CCC34CCCC4)c2C(F)(F)F)CC1` [Example 649, trans-4-(4-((2-(2,6-dichlorophenyl)-2-oxoethyl)((1S)-spiro[3.4]oct-1-yl)carbamoyl)-5-(trifluoromethyl)-1H-pyrazol-1-yl)-1-methylcyclohexanecarboxylic acid], for which the IC50 is 0.00182 µM. Take `C[C@]1(C(=O)O)CC[C@H](n2ncc(C(=O)N(CC(=O)c3c(Cl)cccc3Cl)[C@@H]3CCC34CCCC4)c2C(F)(F)F)CC1` [Example 650, trans-4-(4-((2-(2,6-dichlorophenyl)-2-oxoethyl)((1R)-spiro[3.4]oct-1-yl)carbamoyl)-5-(trifluoromethyl)-1H-pyrazol-1-yl)-1-methylcyclohexanecarboxylic acid]: the IC50 is 0.00794 µM. In the case of `C[C@]1(C(=O)O)CC[C@H](n2ncc(C(=O)N(CC(=O)c3c(Cl)cccc3Cl)[C@@H]3CC34CCCC4)c2C(F)(F)F)CC1` [Example 652, trans-4-(4-((2-(2,6-dichlorophenyl)-2-oxoethyl)((1R)-spiro[2.4]hept-1-yl)carbamoyl)-5-(trifluoromethyl)-1H-pyrazol-1-yl)-1-methylcyclohexanecarboxylic acid], the IC50 was 0.00437 µM. Regarding `C[C@]1(C(=O)O)CC[C@H](n2ncc(C(=O)N(CC(=O)c3c(Cl)cccc3Cl)[C@H]3CCOC4(CCC4)C3)c2C(F)(F)F)CC1` [Example 653, trans-4-(4-((2-(2,6-dichlorophenyl)-2-oxoethyl)((8S)-5-oxaspiro[3.5]non-8-yl)carbamoyl)-5-(trifluoromethyl)-1H-pyrazol-1-yl)-1-methylcyclohexanecarboxylic acid], the IC50 is 0.0708 µM. For the molecule `C[C@]1(C(=O)O)CC[C@H](n2ncc(C(=O)N(CC(=O)c3c(Cl)cccc3Cl)[C@@H]3CCOC4(CCC4)C3)c2C(F)(F)F)CC1` [Example 654, trans-4-(4-((2-(2,6-dichlorophenyl)-2-oxoethyl)((8R)-5-oxaspiro[3.5]non-8-yl)carbamoyl)-5-(trifluoromethyl)-1H-pyrazol-1-yl)-1-methylcyclohexanecarboxylic acid], the IC50 is 0.355 µM.

For the molecule `CC1(C)CC[C@H](CN(CC(=O)c2c(Cl)cncc2Cl)C(=O)c2cnn([C@H]3CC[C@](C)(C(=O)O)CC3)c2C(F)(F)F)O1` [Example 655, trans-4-(4-((2-(3,5-dichloro-4-pyridinyl)-2-oxoethyl)(((2R)-5,5-dimethyltetrahydro-2-furanyl)methyl)carbamoyl)-5-(trifluoromethyl)-1H-pyrazol-1-yl)-1-methylcyclohexanecarboxylic acid], the IC50 was 0.0269 µM. Consider `CC1(C)C[C@@H]1N(CC(=O)c1c(Cl)cncc1Cl)C(=O)c1cnn([C@H]2CC[C@H](C(=O)O)CC2)c1C(F)(F)F` [Example 656, trans-4-(4-((2-(3,5-dichloro-4-pyridinyl)-2-oxoethyl)((1S)-2,2-dimethylcyclopropyl)carbamoyl)-5-(trifluoromethyl)-1H-pyrazol-1-yl)cyclohexanecarboxylic acid], for which the IC50 was 0.186 µM. `CCC(C)(C)CN(CC(=O)c1c(F)cccc1Cl)C(=O)c1cnn([C@H]2CC[C@](C)(C(=O)O)CC2)c1C(F)(F)F` [Example 657, trans-4-(4-((2-(2-chloro-6-fluorophenyl)-2-oxoethyl)(2,2-dimethylbutyl)carbamoyl)-5-(trifluoromethyl)-1H-pyrazol-1-yl)-1-methylcyclohexanecarboxylic acid]: the IC50 was 0.00224 µM. With `CC1(C)[C@@H]2C[C@H](N(CC(=O)c3c(F)cccc3Cl)C(=O)c3cnn([C@H]4CC[C@](C)(C(=O)O)CC4)c3C(F)(F)F)C[C@@H]21` [Example 658, trans-4-(4-((2-(2-chloro-6-fluorophenyl)-2-oxoethyl)((1R,3r,5S)-6,6-dimethylbicyclo[3.1.0]hex-3-yl)carbamoyl)-5-(trifluoromethyl)-1H-pyrazol-1-yl)-1-methylcyclohexanecarboxylic acid] the figure was 0.00195 µM; with `CC(C)(C)CN(CC(=O)c1c(Cl)cncc1Cl)C(=O)c1cnn([C@@H]2CCCC[C@H]2CC(=O)O)c1C(F)(F)F` [Example 659, ((1S,2R)-2-(4-((2-(3,5-dichloro-4-pyridinyl)-2-oxoethyl)(2,2-dimethylpropyl)carbamoyl)-5-(trifluoromethyl)-1H-pyrazol-1-yl)cyclohexyl)acetic acid], 0.331 µM.
